# System: IL1B
# Test: Whole blood response to E. coli filtrate with or without polymyxin B
# Type: cell-based, human
# Conditions: polymyxin B added to E. coli filtrate
# From the text: Figs. 27 through 41 illustrate the use of gene expression panels in early identification and monitoring of infectious disease. These figures plot the response, in expression products of the genes indicated, in whole blood, to the administration of various infectious agents or products associated with infectious agents. In each figure, the gene expression levels are "calibrated", as that term is defined herein, in relation to baseline expression levels determined with respect to the whole blood prior to administration of the relevant infectious agent. In this respect the figures are similar in nature to various figures of our below-referenced patent application WO 01/25473 (for example, Fig. 15 therein). The concentration change is shown ratiometrically, and the baseline level of 1 for a particular gene locus corresponds to an expression level for such locus that is the same, monitored at the relevant time after addition of the infectious agent or other stimulus, as the expression level before addition of the stimulus. Ratiometric changes in concentration are plotted on a logarithmic scale. Bars below the unity line represent decreases in concentration and bars above the unity line represent increases in concentration, the magnitude of each bar indicating the magnitude of the ratio of the change. […]
# The responses were monitored at 2, 6, and 24 hours after administration. […]
substance,measurement,value
polymyxin B,response of IL1B to E. coli filtrate,did not affect the response

# From patent publication EP2069533B1, “GENE […] FOR IDENTIFICATION, MONITORING AND TREATMENT OF MULTIPLE SCLEROSIS” (Life Technologies Corporation, priority 2006, dated 2008)
